Results on 18 molecules are retold here after patent US20110190280A1, “Thiazole And Oxazole Kinase Inhibitors” (priority 2007, published 2011).

One test deals with B-Raf (Homo sapiens, UniProt P15056). The test is described as follows: B-Raf Accelerated MEK ATPase assay (BRAMA). The format is biochemical. To be noted: BRAMA enzyme assay, class by pIC50; for IC50: read-out: B-Raf Activity. On the procedure:
Compounds of the present invention were tested for B-Raf […] inhibitory activity in a B-Raf Accelerated MEK ATPase assay (BRAMA). The BRAMA assay is a high sensitivity assay which measures an intrinsic MEK-mediated ATP hydrolysis uncoupled from downstream ERK phosphorylation by coupling the formation of ADP to NADH oxidation through the enzymes pyruvate kinase and lactate dehydrogenase. When ADP production is initiated by addition of catalytic amounts of an activated RAF enzyme and non-phosphorylated MEK, one observes robust ADP production concomitant with RAF-mediated phosphorylation of MEK. Specific details of the assay are disclosed in: C. Rominger, M. Schaber, E. May. Assay for B-Raf Activity Based on Intrinsic MEK ATPase Activity.

For another test, the system named is A375P tumor cells. The test is described as follows: Cell growth inhibition assay (CellTiter-Glo), A375P.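 Note: total ATP luminescence used as proxy for cell number, serial threefold compound dilutions at 0.2% DMSO, growth inhibition expressed versus DMSO vehicle-treated wells.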 The conditions noted are these: Homo sapiens, 72 h, read-out: Activity in A375P Tumor Cells. Background: Cellular ATP, detected with luciferase, serves as a proxy for viable cell number.
Another test has as its system HT-29 tumor cells. The test is described as follows: Cell growth inhibition assay (CellTiter-Glo), HT-29.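 Note: ATP content read by luminescence as proxy for cell number, growth inhibition versus DMSO vehicle wells, 0.2% DMSO final, nine serial threefold compound dilutions.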 To be noted: Homo sapiens, HT-29, 72 h, read-out: Activity in HT-29 Tumor Cells.
Another test has as its system Colo205 tumor cells. The test is described as follows: Cell growth inhibition assay (CellTiter-Glo), Colo205.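 Note: growth measured via total ATP luminescence (CellTiter-Glo) as a proxy for cell number, inhibition expressed against DMSO-treated control wells, 3-day exposure at 0.2% final DMSO.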 The conditions noted are these: Homo sapiens, COLO 205, 72 h, read-out: Activity in Colo205 Tumor Cells.
The subject of a further test is SK-MEL-3 tumor cells. The test is described as follows: Cell growth inhibition assay (CellTiter-Glo), SK-MEL-3.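 Note: human melanoma cells grown with compound for 3 days in 0.2% DMSO, total ATP read by luminescence as proxy for cell number, growth inhibition versus DMSO-treated wells.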 To be noted: Homo sapiens, SK-MEL3, 72 h, read-out: Activity in SK-MEL-3 Tumor Cells.
Another test concerns SK-MEL-28 tumor cells. The test is described as follows: Cell growth inhibition assay (CellTiter-Glo), SK-MEL-28.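 Note: luminescent total ATP as a proxy for cell number, threefold serial dilutions at 0.2% DMSO, percent growth inhibition versus DMSO vehicle control wells.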 The conditions noted are these: Homo sapiens, SK-MEL-28, 72 h, read-out: Activity in SK-MEL-28 Tumor Cells.

Counter-ions that a name gives are not always drawn.

Sequence of B-Raf (P15056 whole entry): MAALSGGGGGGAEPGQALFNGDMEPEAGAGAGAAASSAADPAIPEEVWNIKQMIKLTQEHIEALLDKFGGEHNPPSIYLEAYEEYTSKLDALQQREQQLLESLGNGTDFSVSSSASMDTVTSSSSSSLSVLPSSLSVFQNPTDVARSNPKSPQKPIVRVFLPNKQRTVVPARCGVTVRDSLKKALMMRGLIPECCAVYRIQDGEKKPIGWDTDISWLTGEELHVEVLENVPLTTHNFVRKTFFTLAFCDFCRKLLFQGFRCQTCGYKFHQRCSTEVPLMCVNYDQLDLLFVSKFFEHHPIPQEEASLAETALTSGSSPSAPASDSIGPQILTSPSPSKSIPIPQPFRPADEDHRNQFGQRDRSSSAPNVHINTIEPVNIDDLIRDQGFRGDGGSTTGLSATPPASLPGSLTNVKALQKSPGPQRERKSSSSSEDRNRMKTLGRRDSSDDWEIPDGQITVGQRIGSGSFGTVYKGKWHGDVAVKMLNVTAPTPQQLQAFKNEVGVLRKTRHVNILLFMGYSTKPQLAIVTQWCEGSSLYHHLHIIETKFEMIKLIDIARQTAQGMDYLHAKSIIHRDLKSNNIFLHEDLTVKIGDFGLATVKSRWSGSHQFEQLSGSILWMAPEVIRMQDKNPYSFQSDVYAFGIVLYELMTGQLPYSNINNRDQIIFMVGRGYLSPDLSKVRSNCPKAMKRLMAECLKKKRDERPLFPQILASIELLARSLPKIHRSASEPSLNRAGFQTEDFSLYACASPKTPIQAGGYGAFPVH

Consider `COc1cc(-c2nc(NC3CC3)sc2-c2ccnc(Nc3ccc(OCCN4CCCC4)c(Cl)c3)n2)ccc1Cl` [Example 51, 4-[4-[4-Chloro-3-(methyloxy)phenyl]-2-(cyclopropylamino)-1,3-thiazol-5-yl]-N-(3-chloro-4-{[2-(1-pyrrolidinyl)ethyl]oxy}phenyl)-2-pyrimidinamine], for which the IC50 at B-Raf is below 100 nM; in the test with A375P tumor cells it was 500 to 5000 nM; in the test with HT-29 tumor cells, below 500 nM; in the test on Colo205 tumor cells it was below 500 nM; in the test on SK-MEL-3 tumor cells, below 500 nM; in the test with SK-MEL-28 tumor cells, 500 to 5000 nM.
`CCNc1nc(-c2cc(OC)cc(OC)c2)c(-c2ccnc(Nc3ccc(N4CCN(CCS(C)(=O)=O)CC4)nc3)n2)s1` [Example 1, 4-[4-[3,5-Bis(methyloxy)phenyl]-2-(ethylamino)-1,3-thiazol-5-yl]-N-(6-{4-[2-(methylsulfonyl)ethyl]-1-piperazinyl}-3-pyridinyl)-2-pyrimidinamine]: the IC50 was below 100 nM at B-Raf; below 500 nM in the test on A375P tumor cells; below 500 nM in the test on HT-29 tumor cells; below 500 nM with Colo205 tumor cells; below 500 nM in the test with SK-MEL-3 tumor cells; 500 to 5000 nM in the test with SK-MEL-28 tumor cells.
For `CCNc1nc(-c2cc(C)cc(OC)c2)c(-c2ccnc(Nc3ccc(N4CCOCC4)c(F)c3)n2)o1.O=C(O)C(F)(F)F` [Example 129], the “B-Raf Activity” value at B-Raf is “+++ (at least one pIC50 measurement of greater than 7 against B-Raf)”. Further, the IC50 with A375P tumor cells, in the test on HT-29 tumor cells and with SK-MEL-3 tumor cells was 500 to 5000 nM each time.
For the molecule `CCNc1nc(-c2cc(OC)cc(OC)c2)c(-c2ccnc(Nc3ccc(N4CCN(C)CC4)c(Cl)c3)n2)s1` [Example 11, 4-[4-[3,5-Bis(methyloxy)phenyl]-2-(ethylamino)-1,3-thiazol-5-yl]-N-[3-chloro-4-(4-methyl-1-piperazinyl)phenyl]-2-pyrimidinamine], the IC50 at B-Raf is below 100 nM; in the test with A375P tumor cells, below 500 nM; with HT-29 tumor cells it was below 500 nM; in the test with Colo205 tumor cells, below 500 nM; in the test with SK-MEL-3 tumor cells, below 500 nM; in the test with SK-MEL-28 tumor cells, below 500 nM.
`CCNc1nc(-c2cc(OC)cc(OC)c2)c(-c2ccnc(Nc3ccc(N4CCN(CCF)CC4)c(F)c3)n2)s1` [Example 8, 4-[4-[3,5-Bis(methyloxy)phenyl]-2-(ethylamino)-1,3-thiazol-5-yl]-N-{3-fluoro-4-[4-(2-fluoroethyl)-1-piperazinyl]phenyl}-2-pyrimidinamine]: the IC50 at B-Raf was below 100 nM; in the test on A375P tumor cells, 500 to 5000 nM; with HT-29 tumor cells, below 500 nM; with Colo205 tumor cells it was below 500 nM; in the test with SK-MEL-3 tumor cells, below 500 nM; in the test on SK-MEL-28 tumor cells, below 500 nM.
Take `CCNc1nc(-c2cc(OC)cc(OC)c2)c(-c2ccnc(Nc3ccc(OC4CCN(C(C)=O)CC4)c(F)c3)n2)s1` [Example 12, N-{4-[(1-Acetyl-4-piperidinyl)oxy]-3-fluorophenyl}-4-[4-[3,5-bis(methyloxy)phenyl]-2-(ethylamino)-1,3-thiazol-5-yl]-2-pyrimidinamine]: the IC50 is below 100 nM at B-Raf; below 500 nM with A375P tumor cells; below 500 nM in the test on HT-29 tumor cells; below 500 nM with Colo205 tumor cells; below 500 nM in the test with SK-MEL-3 tumor cells; 500 to 5000 nM in the test on SK-MEL-28 tumor cells.
`CCNc1nc(-c2cc(C)cc(OC)c2)c(-c2ccnc(Nc3ccc(N4CCN(CCS(C)(=O)=O)CC4)c(F)c3)n2)o1` [Example 127]: the IC50 on B-Raf is below 100 nM; in the test with A375P tumor cells, 500 to 5000 nM; in the test on HT-29 tumor cells it was below 500 nM; in the test with Colo205 tumor cells it was below 500 nM; in the test with SK-MEL-3 tumor cells, below 500 nM; in the test with SK-MEL-28 tumor cells it was below 500 nM.
`CCNc1nc(-c2cc(OC)cc(OC)c2)c(-c2ccnc(Nc3ccc(N4CCN(CCS(C)(=O)=O)CC4)c(F)c3)n2)o1` [Example 116]: the IC50 on B-Raf is below 100 nM; in the test on A375P tumor cells, 500 to 5000 nM; in the test with HT-29 tumor cells, 500 to 5000 nM; in the test on Colo205 tumor cells, below 500 nM; in the test on SK-MEL-3 tumor cells, below 500 nM; in the test with SK-MEL-28 tumor cells it was 500 to 5000 nM.
In the case of `CCNc1nc(-c2cc(OC)cc(OC)c2)c(-c2ccnc(Nc3ccc(OC4CCN(CCF)CC4)c(OC)c3)n2)o1` [Example 96], the IC50 at B-Raf was below 100 nM; in the test on A375P tumor cells, 500 to 5000 nM; in the test with HT-29 tumor cells, 500 to 5000 nM; in the test with Colo205 tumor cells it was 500 to 5000 nM; with SK-MEL-3 tumor cells, 500 to 5000 nM; in the test on SK-MEL-28 tumor cells, 500 to 5000 nM.
`CCNc1nc(-c2cc(OC)cc(OC)c2)c(-c2ccnc(Nc3ccc(N4CCN(CCS(C)(=O)=O)CC4)c(F)c3)n2)s1` [Example 6, 4-[4-[3,5-Bis(methyloxy)phenyl]-2-(ethylamino)-1,3-thiazol-5-yl]-N-(3-fluoro-4-{4-[2-(methylsulfonyl)ethyl]-1-piperazinyl}phenyl)-2-pyrimidinamine trifluoroacetate]: the IC50 at B-Raf is below 100 nM; in the test with A375P tumor cells, below 500 nM; in the test on HT-29 tumor cells, below 500 nM; in the test on Colo205 tumor cells it was below 500 nM; in the test on SK-MEL-3 tumor cells, below 500 nM; in the test on SK-MEL-28 tumor cells it was 500 to 5000 nM.
On to `CCNc1nc(-c2cc(OC)cc(OC)c2)c(-c2ccnc(Nc3ccc(N4CCS(=O)(=O)CC4)c(F)c3)n2)s1` [Example 9, 4-[4-[3,5-Bis(methyloxy)phenyl]-2-(ethylamino)-1,3-thiazol-5-yl]-N-[4-(1,1-dioxido-4-thiomorpholinyl)-3-fluorophenyl]-2-pyrimidinamine], for which the IC50 on B-Raf is below 100 nM; in the test on A375P tumor cells it was 500 to 5000 nM; in the test with HT-29 tumor cells, below 500 nM; in the test with Colo205 tumor cells it was 500 to 5000 nM; in the test on SK-MEL-3 tumor cells, below 500 nM; in the test on SK-MEL-28 tumor cells it was below 500 nM.
Consider `CCNc1nc(-c2cc(OC)cc(OC)c2)c(-c2ccnc(Nc3ccc(N4CCN(CCOC)CC4)c(C(=O)O)c3)n2)o1` [Example 119], for which the IC50 was below 100 nM on B-Raf; 500 to 5000 nM in the test with A375P tumor cells; 500 to 5000 nM in the test on HT-29 tumor cells; 500 to 5000 nM in the test with Colo205 tumor cells; 500 to 5000 nM in the test on SK-MEL-3 tumor cells; 500 to 5000 nM with SK-MEL-28 tumor cells.
Regarding `CCNc1nc(-c2cc(OC)cc(OC)c2)c(-c2ccnc(Nc3cc(OC)c(OC4CCN(CCS(C)(=O)=O)CC4)c(OC)c3)n2)o1` [Example 133], the IC50 on B-Raf was below 100 nM; in the test with A375P tumor cells, 500 to 5000 nM; in the test with HT-29 tumor cells it was 500 to 5000 nM; with Colo205 tumor cells it was below 500 nM; in the test with SK-MEL-3 tumor cells it was 500 to 5000 nM; in the test with SK-MEL-28 tumor cells, 500 to 5000 nM.
Turning to `CCc1nc(-c2cc(C)cc(CO)c2)c(-c2ccnc(Nc3ccc(N4CCN(S(C)(=O)=O)CC4)nc3)n2)s1` [Example 66, (3-{2-Ethyl-5-[2-({6-[4-(methylsulfonyl)piperazin-1-yl]pyridin-3-yl}amino)pyrimidin-4-yl]-1,3-thiazol-4-yl}-5-methylphenyl)methanol], the IC50 was below 100 nM at B-Raf; below 500 nM with A375P tumor cells; below 500 nM with HT-29 tumor cells; below 500 nM in the test with Colo205 tumor cells; below 500 nM in the test with SK-MEL-3 tumor cells; 500 to 5000 nM in the test with SK-MEL-28 tumor cells.
Consider `CCNc1nc(-c2cc(OC)cc(OC)c2)c(-c2ccnc(Nc3cc(F)c(OC4CCN(CCS(C)(=O)=O)CC4)c(F)c3)n2)o1` [Example 90], for which the IC50 on B-Raf was below 100 nM; in the test with A375P tumor cells, 500 to 5000 nM; with HT-29 tumor cells it was below 500 nM; in the test with Colo205 tumor cells, below 500 nM; in the test on SK-MEL-3 tumor cells it was below 500 nM; in the test on SK-MEL-28 tumor cells, below 500 nM.
For the molecule `CCNc1nc(-c2cc(OC)cc(OC)c2)c(-c2ccnc(Nc3ccc(N4CCN(CC)CC4)cc3)n2)s1` [Example 5, 4-[4-[3,5-Bis(methyloxy)phenyl]-2-(ethylamino)-1,3-thiazol-5-yl]-N-[4-(4-ethyl-1-piperazinyl)phenyl]-2-pyrimidinamine trifluoroacetate], the IC50 was below 100 nM on B-Raf; 500 to 5000 nM in the test with A375P tumor cells; below 500 nM with HT-29 tumor cells; 500 to 5000 nM with Colo205 tumor cells; below 500 nM with SK-MEL-3 tumor cells; 500 to 5000 nM in the test with SK-MEL-28 tumor cells.
Turning to `COc1cc(OC)cc(-c2nc(NC3CC3)sc2-c2ccnc(Nc3ccc(OC4CCN(CCS(C)(=O)=O)CC4)c(F)c3)n2)c1` [Example 17, 4-[4-[3,5-Bis(methyloxy)phenyl]-2-(cyclopropylamino)-1,3-thiazol-5-yl]-N-[3-fluoro-4-({1-[2-(methylsulfonyl)ethyl]-4-piperidinyl}oxy)phenyl]-2-pyrimidinamine], the IC50 is below 100 nM at B-Raf; below 500 nM in the test on A375P tumor cells; below 500 nM in the test with HT-29 tumor cells; below 500 nM in the test with Colo205 tumor cells; below 500 nM with SK-MEL-3 tumor cells; below 500 nM in the test on SK-MEL-28 tumor cells.
For `CCNc1nc(-c2cc(OC)cc(OC)c2)c(-c2ccnc(Nc3cc(F)c(N4CCN(CCF)CC4)c(F)c3)n2)o1` [Example 94], the IC50 on B-Raf is below 100 nM; in the test on A375P tumor cells, 500 to 5000 nM; in the test with HT-29 tumor cells it was below 500 nM; with Colo205 tumor cells, below 500 nM; in the test with SK-MEL-3 tumor cells, below 500 nM; in the test on SK-MEL-28 tumor cells, 500 to 5000 nM.
